Reference: US10508109B2 (priority 2015, dated 2019)
Where two headings read alike, the source gives them in different places.

Key:
A549 = assay: Cell-based assay, anti-proliferative activity (Cell Counting Kit-8, 72 hours); conditions: Homo sapiens, A549 cells
Outline: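 After compound exposure of cells in 96-well plates, growth was measured colorimetrically and converted into IC50 values.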

CCD-18Co = assay: as above; conditions: Homo sapiens; CCD-18Co cells, Cell Counting Kit-8, 72 hours; read-out: IC50 (μM) CCD-18Co
Outline: (§1)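 Anti-proliferative IC50 obtained from 96-well cultures treated 72 h with inhibitor at 0–100 micro-M, growth assessed by a CCK-8 colorimetric readout.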

HCT-116 = assay: as above; conditions: Homo sapiens; HCT-116 cells, Cell Counting Kit-8, 72 hours; read-out: IC50 (μM) HCT-116
Outline: as §1

HFL1 = assay: as above; conditions: Homo sapiens; HFL1 cells, Cell Counting Kit-8, 72 hours; read-out: IC50 (μM) HFL1
Outline: as §1

SUV39H2 [1] = target: T1, SUV39H2 (Homo sapiens (Human), UniProt Q9H5I1); conditions: read-out: IC50 (μM) Suv 39H2 assay; enzyme assay
SUV39H2 [2] = target: T1, SUV39H2; assay: biochemical
PC14 = assay: Cell-based assay, anti-proliferative activity (Cell Counting Kit-8, 72 hours); conditions: Homo sapiens, PC-14; PC14 cells, Cell Counting Kit-8, 72 hours; read-out: IC50 (μM) PC14
Outline: as §1

SUV39H2 [3] = target: T1, SUV39H2; assay: biochemical; format: biochemical; conditions: 3H-SAM 100 nM, H3 Histone Peptide 350 nM, room temperature 3 hours
Outline: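 Scintillation proximity format: reactions were halted with streptavidin SPA beads (50 μg/well final) after 3 h at room temperature with enzyme dosed by lot-specific activity.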

[4] = Cell Counting Kit-8, 72 hours, read-out: IC50 (μM) A549
[5] = 72 hours exposure, Cell Counting Kit-8, read-out: A549 IC50

T1 sequence (Q9H5I1 whole entry): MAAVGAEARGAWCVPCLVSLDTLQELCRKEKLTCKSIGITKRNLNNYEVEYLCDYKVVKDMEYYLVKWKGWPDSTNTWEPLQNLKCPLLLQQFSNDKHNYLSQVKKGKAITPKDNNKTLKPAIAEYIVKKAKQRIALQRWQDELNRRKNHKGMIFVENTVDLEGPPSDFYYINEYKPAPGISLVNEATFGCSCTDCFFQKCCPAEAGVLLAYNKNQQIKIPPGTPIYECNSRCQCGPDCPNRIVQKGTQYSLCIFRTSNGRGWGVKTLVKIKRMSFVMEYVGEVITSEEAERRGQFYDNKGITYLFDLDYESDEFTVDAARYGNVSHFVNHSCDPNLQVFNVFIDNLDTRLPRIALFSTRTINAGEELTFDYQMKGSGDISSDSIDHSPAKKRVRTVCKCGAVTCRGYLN

Molecule `COc1cc(OC)c(-c2cn3ccc(N4CCN(C(C)C)CC4)cc3n2)cc1Cl` [Example 100, 2-(5-chloro-2,4-dimethoxyphenyl)-7-(4-isopropylpiperazin-1-yl)imidazo-[1,2-a]pyridine] has an IC50 (A549; [4]) of 5.6 µM, an IC50 (CCD-18Co) of 5.8 µM and an IC50 (HCT-116) of 3.2 µM. It also gave an IC50 (HFL1) of 3.2 µM, an IC50 (SUV39H2 [1]) of 0.0136 µM and an IC50 (SUV39H2 [2]) of 15.4 nM.

Work on `CCCS(=O)(=O)NC1CCN(c2ccn3cc(-c4cc(Cl)c(OC)cc4OC)nc3n2)CC1` [Example 193, N-(1-(2-(5-chloro-2,4-dimethoxyphenyl)imidazo[1,2-a]pyrimidin-7-yl)-piperidin-4-yl)propane-1-sulfonamide] yielded an IC50 (A549; [4]) of 10 µM, an IC50 (CCD-18Co) of 10 µM and an IC50 (HCT-116) of 10 µM. The IC50 (HFL1) was 10 µM, the IC50 (PC14) was 6.7 µM and the IC50 (SUV39H2 [2]) was 32.7 nM.

`COc1cc(OC)c(-c2cn3ccc(N4CCC(C(=O)Nc5ccccc5)CC4)cc3n2)cc1Cl` [Example 456, 1-(2-(5-chloro-2,4-dimethoxyphenyl)imidazo[1,2-a]pyridin-7-yl)-N-phenylpiperidine-4-carboxamide] showed an IC50 (SUV39H2 [3]) of 25.5 nM and an IC50 (A549; [5]) of 0.63 µM.

`COc1cc(OC)c(-c2cn3ccc(N[C@H]4C[C@H]5CC[C@@H](C4)N5C(=O)c4ccccc4)cc3n2)cc1Cl` [Example 457, ((1R,3r,5S)-3-((2-(5-chloro-2,4-dimethoxyphenyl)imidazo[1,2-a]pyridin-7-yl)amino)-8-azabicyclo[3.2.1]octan-8-yl)(phenyl)methanone] showed an IC50 (SUV39H2 [3]) of 34.8 nM and an IC50 (A549; [5]) of 0.82 µM.

`CNC1CCN(c2cnc(N3CCN(c4ccn5cc(-c6cc(Cl)c(OC)cc6OC)nc5c4)CC3)nc2)CC1` [Example 458, 1-(2-(4-(2-(5-chloro-2,4-dimethoxyphenyl)imidazo[1,2-a]pyridin-7-yl)piperazin-1-yl)pyrimidin-5-yl)-N-methylpiperidin-4-amine] gave an IC50 (SUV39H2 [3]) of 17.5 nM and an IC50 (A549; [5]) of 0.42 µM.

With `COc1cc(OC)c(-c2cn3ccc(N4CCC(CNC(=O)OC(C)(C)C)C4)cc3n2)cc1Cl` (stereo not shown) [Example 459, tert-butyl ((1-(2-(5-chloro-2,4-dimethoxyphenyl)imidazo[1,2-a]pyridin-7-yl)pyrrolidin-3-yl)methyl)carbamate] the IC50 (SUV39H2 [3]) was 7.69 nM and the IC50 (A549; [5]) was 0.99 µM.

`COc1cc(OC)c(-c2cn3ccc(N4CCC(C(=O)NC5CCN(C(=O)OC(C)(C)C)CC5)CC4)cc3n2)cc1Cl` [Example 460, tert-butyl 4-(1-(2-(5-chloro-2,4-dimethoxyphenyl)imidazo[1,2-a]pyridin-7-yl)piperidine-4-carboxamido)piperidine-1-carboxylate] gave an IC50 (SUV39H2 [3]) of 20.7 nM and an IC50 (A549; [5]) of 0.69 µM.
